Reference: PMC4601051, “Discovery of Indoline-2-carboxamide Derivatives as a New Class of Brain-Penetrant Inhibitors of Trypanosoma brucei” (Journal of Medicinal Chemistry, 2015)
Several values for one entry are separate records, joined by “and”; a condition that tells them apart may be missing. Identical values can stand only once. Like-named read-outs stand apart in the source and are kept apart here.

Assay: In vivo mouse pharmacokinetics
Details: for Cmax / Tmax / half-life / AUC(0-t) at 8 h / AUC(0-t): female, mouse, in vivo, 10 mg/kg, NMRI mice; for AUC(0-t) at 8 h: read-out: AUC0–8; for AUC(0-t): read-out: AUC0–8 (converted)
Method: Each compound was dosed as a bolus solution intraperitoneally at 10 mg free base/kg (dose volume, 10 mL/kg; dose vehicles used, 10% DMSO; 40% PEG400; 50% Milli-Q water or 5% DMSO; 40% PEG400; 55% saline) to female HRN (1 only) or NMRI mice (n = 3) or dosed orally by gavage as a solution at 10 mg free base/kg (dose volume, 10 mL/kg; dose vehicle, 10% DMSO; 40% PEG400; 50% Milli-Q water) to female NMRI mice (n = 3). Female NMRI mice were chosen, as these represent the sex and strain used for the stage 1 and stage 2 HAT efficacy models. Blood samples were taken from each mouse at 5 (IP only), 15, and 30 min, 1, 2, 4, 6, and 8 h post dose, mixed with two volumes of distilled water, and stored frozen until UPLC/MS/MS analysis. Pharmacokinetic parameters were derived from noncompartmental analysis of the blood concentration time curve using PK solutions software v 2.0 (Summit Research Services, USA).

SMILES: CNC(=O)[C@H]1Cc2ccccc2N1C(=O)Cc1ccc(F)cc1 [Compound 47, (R)-1-(2-(4-Fluorophenyl)acetyl)-N-methylindoline-2-carboxamide]
- higher AUC compared to 1 (IP, female NMRI mice): 1.5–6.5 fold
- Cmax (IP): 2300 ng/mL and 7.4 µM
- Tmax (IP): 15 min
- half-life (IP): 30 min
- AUC(0-t) at 8 h (IP): 9.1 µM·h
- AUC(0-t) (IP): 2830 ng·h/mL
- Cmax (PO): 750 ng/mL and 2.4 µM
- Tmax (PO): 30 min
- half-life (PO): 36 min
- AUC(0-t) at 8 h (PO): 3.3 µM·h
- AUC(0-t) (PO): 1020 ng·h/mL
